pIC50: −log10 of the molar value.
Experiments:
HEK293 = experiment: In vitro inhibitory activity against beta-amyloid peptide (Abeta) in HEK293/APP751swe cells; format: functional, cell-based; settings: Homo sapiens
Beta-secretase 1 = Beta-secretase 1 (Homo sapiens, UniProt P56817); experiment: In vitro inhibition of Beta-secretase-1 in HEK293 (Human Embryonic Kidney) cell line.; format: cell-based
Beta-secretase 2 = molecular target: T1, Beta-secretase 2 (Homo sapiens, UniProt Q9Y5Z0); experiment: Selectivity tested against Beta-secretase 2 (BACE) in human
T1 sequence (Q9Y5Z0 whole entry): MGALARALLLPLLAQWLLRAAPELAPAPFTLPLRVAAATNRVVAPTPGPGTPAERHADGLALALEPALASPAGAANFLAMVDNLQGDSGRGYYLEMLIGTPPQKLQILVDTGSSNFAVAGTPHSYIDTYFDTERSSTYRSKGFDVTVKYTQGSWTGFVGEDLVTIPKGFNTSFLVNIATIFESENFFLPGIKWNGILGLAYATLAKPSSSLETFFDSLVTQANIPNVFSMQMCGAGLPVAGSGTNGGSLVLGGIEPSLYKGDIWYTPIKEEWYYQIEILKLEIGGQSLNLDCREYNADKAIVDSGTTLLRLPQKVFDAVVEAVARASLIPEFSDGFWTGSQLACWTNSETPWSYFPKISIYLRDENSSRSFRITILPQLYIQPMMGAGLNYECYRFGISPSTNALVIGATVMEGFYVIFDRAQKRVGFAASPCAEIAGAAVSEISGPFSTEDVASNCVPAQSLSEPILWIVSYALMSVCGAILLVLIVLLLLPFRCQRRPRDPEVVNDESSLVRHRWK

Sequence of Beta-secretase 1 (P56817 whole entry): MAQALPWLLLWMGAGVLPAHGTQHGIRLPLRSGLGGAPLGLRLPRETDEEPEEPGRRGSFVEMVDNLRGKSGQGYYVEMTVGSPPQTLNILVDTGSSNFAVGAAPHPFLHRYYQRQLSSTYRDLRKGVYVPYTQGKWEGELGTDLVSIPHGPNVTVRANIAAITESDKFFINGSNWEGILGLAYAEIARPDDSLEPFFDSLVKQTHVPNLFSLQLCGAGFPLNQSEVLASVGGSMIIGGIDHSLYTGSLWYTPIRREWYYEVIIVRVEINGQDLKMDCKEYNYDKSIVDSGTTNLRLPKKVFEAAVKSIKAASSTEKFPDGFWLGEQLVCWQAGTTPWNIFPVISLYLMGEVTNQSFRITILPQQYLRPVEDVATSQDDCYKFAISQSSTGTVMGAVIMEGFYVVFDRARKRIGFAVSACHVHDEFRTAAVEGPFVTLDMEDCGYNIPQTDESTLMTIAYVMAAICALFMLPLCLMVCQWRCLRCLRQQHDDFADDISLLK

| pIC50 (Beta-secretase 1) | pIC50 (Beta-secretase 2) | SMILES | pIC50 (HEK293) |
| --- | --- | --- | --- |
| 6.38 |  | CC(C[C@H](O)[C@H](Cc1ccccc1)NC(=O)[C@H](C)NC(=O)[C@H](CCCC(F)(F)F)NC(=O)OC(C)(C)C)C(=O)NC(C(=O)NCc1ccncc1)C(C)C (single isomer, unassigned) | 4.87 |
| 7.15 |  | CSCC[C@H](NC(=O)[C@@H](NC(=O)OC(C)(C)C)C(C)C)C(=O)N[C@@H](Cc1ccccc1)[C@@H](O)CC(C)C(=O)NC(C(=O)NCc1ccncc1)C(C)C (single isomer, unassigned) | 5.77 |
| 7.39 |  | CCC[C@H](NC(=O)OC(C)(C)C)C(=O)N[C@@H](C)C(=O)N[C@@H](Cc1ccccc1)[C@@H](O)CC(C)C(=O)NC(C(=O)NCc1ccncc1)C(C)C (single isomer, unassigned) | 5.85 |
| 6.93 |  | COC[C@H](NC(=O)OC(C)(C)C)C(=O)N[C@@H](C)C(=O)N[C@@H](Cc1ccccc1)[C@@H](O)CC(C)C(=O)NC(C(=O)NCc1ccncc1)C(C)C (single isomer, unassigned) | 5.30 |
| 7.55 |  | CSCC[C@H](NC(=O)[C@@H](NC(=O)OC(C)(C)C)C(C)C)C(=O)N[C@@H](Cc1ccccc1)[C@@H](O)C[C@@H](C)C(=O)N[C@H](C(=O)NCc1ccccc1)C(C)C | 4.66 |
| 7.22 |  | CCC[C@H](NC(=O)OC(C)(C)C)C(=O)N[C@@H](CCSC)C(=O)N[C@@H](Cc1ccccc1)[C@@H](O)CC(C)C(=O)NC(C(=O)NCc1ccncc1)C(C)C (single isomer, unassigned) | 6.00 |
| 7.35 |  | CC(C[C@H](O)[C@H](Cc1ccccc1)NC(=O)[C@H](C)NC(=O)[C@H](CC(F)F)NC(=O)OC(C)(C)C)C(=O)NC(C(=O)NCc1ccncc1)C(C)C (single isomer, unassigned) | 6.40 |
| 5.60 |  | CC(C[C@H](O)[C@H](Cc1ccccc1)NC(=O)[C@H](C)NC(=O)[C@H](CN(C)C)NC(=O)OC(C)(C)C)C(=O)NC(C(=O)NCc1ccncc1)C(C)C (single isomer, unassigned) |  |
| 6.90 |  | COCC[C@H](NC(=O)[C@@H](NC(=O)OC(C)(C)C)C(C)C)C(=O)N[C@@H](Cc1ccccc1)[C@@H](O)CC(C)C(=O)NC(C(=O)NCc1ccncc1)C(C)C (single isomer, unassigned) | 5.54 |
| 6.55 |  | CC(C[C@H](O)[C@H](Cc1ccccc1)NC(=O)[C@H](C)NC(=O)[C@H](CC(F)(F)C(F)F)NC(=O)OC(C)(C)C)C(=O)NC(C(=O)NCc1ccncc1)C(C)C (single isomer, unassigned) | 5.79 |
| 7.38 |  | CC[C@@H](C)[C@H](NC(=O)OC(C)(C)C)C(=O)N[C@@H](C)C(=O)N[C@@H](Cc1ccccc1)[C@@H](O)CC(C)C(=O)NC(C(=O)NCc1ccncc1)C(C)C (single isomer, unassigned) | 6.39 |
| 5.98 |  | CC(C[C@H](O)[C@H](Cc1ccccc1)NC(=O)C(C)NC(=O)[C@@H](NC(=O)OC(C)(C)C)C(C)C)C(=O)NC(C(=O)NCc1ccncc1)C(C)C (single isomer, unassigned) | 4.32 |
| 7.12 |  | CC[C@H](NC(=O)OC(C)(C)C)C(=O)N[C@@H](C)C(=O)N[C@@H](Cc1ccccc1)[C@@H](O)CC(C)C(=O)NC(C(=O)NCc1ccncc1)C(C)C (single isomer, unassigned) | 5.55 |
| 7.09 |  | CC(C[C@H](O)[C@H](Cc1ccccc1)NC(=O)[C@H](C)NC(=O)[C@@H](NC(=O)OC(C)(C)C)C(C)C)C(=O)NC(C(=O)NCc1ccncc1)C(C)C (single isomer, unassigned) | 5.68 |
|  | 6.30 | CSCC[C@H](NC(=O)[C@@H](NC(=O)OC(C)(C)C)C(C)C)C(=O)N[C@@H](CC(C)C)[C@@H](O)C[C@@H](C)C(=O)N[C@H](C(=O)NCc1ccccc1)C(C)C |  |
| 7.20 |  | CC(C)C[C@H](NC(=O)OC(C)(C)C)C(=O)N[C@@H](C)C(=O)N[C@@H](Cc1ccccc1)[C@@H](O)CC(C)C(=O)NC(C(=O)NCc1ccncc1)C(C)C (single isomer, unassigned) | 6.07 |
| 4.05 |  | CC(C[C@H](O)[C@H](Cc1ccccc1)NC(=O)[C@H](C)NC(=O)[C@H](CCN(C)C)NC(=O)OC(C)(C)C)C(=O)NC(C(=O)NCc1ccncc1)C(C)C (single isomer, unassigned) |  |
| 6.15 |  | COCC[C@H](NC(=O)OC(C)(C)C)C(=O)N[C@@H](C)C(=O)N[C@@H](Cc1ccccc1)[C@@H](O)CC(C)C(=O)NC(C(=O)NCc1ccncc1)C(C)C (single isomer, unassigned) |  |
